Measured values published in the supplement of paper PMC10307832.

Columns and labels:
Experiment in all cases: relative viability (nuclei count vs DMSO), 5 days (fraction); higher = more cells survive
BX 795 + Pictilisib = compound: O=C(NCCCNc1nc(Nc2cccc(NC(=O)N3CCCC3)c2)ncc1I)c1cccs1 [BX 795] + CS(=O)(=O)N1CCN(Cc2cc3nc(-c4cccc5[nH]ncc45)nc(N4CCOCC4)c3s2)CC1 [Pictilisib] (partner 1 µM)
Procedure, shortened: (§1)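 Lung cancer cell lines, seeded in 1536-well plates, were treated the following day by pin tool with a single drug or with five library-drug doses (not always all listed) in √10 steps on top of a fixed anchor-drug dose. Cells were fixed and nuclei stained in one step after 5 days, and nuclei were counted. Relative viability is the nuclei count for treated wells divided by that for vehicle wells, reported as medians of duplicate plates.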

BX 795 + OSI-027 = compound: O=C(NCCCNc1nc(Nc2cccc(NC(=O)N3CCCC3)c2)ncc1I)c1cccs1 [BX 795] + COc1cccc2cc(-c3nc([C@H]4CC[C@H](C(=O)O)CC4)n4ncnc(N)c34)[nH]c12 [OSI-027] (partner 0.5 µM)
Procedure, shortened: as §1

BX 795 + Phenformin = compound: O=C(NCCCNc1nc(Nc2cccc(NC(=O)N3CCCC3)c2)ncc1I)c1cccs1 [BX 795] + N=C(N)NC(=N)NCCc1ccccc1 [Phenformin] (partner 250 µM)
Procedure, shortened: as §1

BX 795 + Olaparib = compound: O=C(NCCCNc1nc(Nc2cccc(NC(=O)N3CCCC3)c2)ncc1I)c1cccs1 [BX 795] + O=C(c1cc(Cc2n[nH]c(=O)c3ccccc23)ccc1F)N1CCN(C(=O)C2CC2)CC1 [Olaparib] (partner 8 µM)
Procedure, shortened: as §1

BX 795 + Luminespib = compound: O=C(NCCCNc1nc(Nc2cccc(NC(=O)N3CCCC3)c2)ncc1I)c1cccs1 [BX 795] + CCNC(=O)c1noc(-c2cc(C(C)C)c(O)cc2O)c1-c1ccc(CN2CCOCC2)cc1 [Luminespib] (partner 0.01 µM)
Procedure, shortened: as §1

Row | Cell Line | relative viability (BX 795 + Pictilisib; first compound 0.04 µM) | relative viability (BX 795 + Pictilisib; first compound 0.1265 µM) | relative viability (BX 795 + Pictilisib; first compound 0.4 µM) | relative viability (BX 795 + Pictilisib; first compound 1.265 µM) | relative viability (BX 795 + OSI-027; first compound 0.04 µM) | relative viability (BX 795 + OSI-027; first compound 0.1265 µM) | relative viability (BX 795 + OSI-027; first compound 0.4 µM) | relative viability (BX 795 + OSI-027; first compound 1.265 µM) | relative viability (BX 795 + Phenformin; first compound 0.04 µM) | relative viability (BX 795 + Phenformin; first compound 0.1265 µM) | relative viability (BX 795 + Phenformin; first compound 0.4 µM) | relative viability (BX 795 + Phenformin; first compound 1.265 µM) | relative viability (BX 795 + Olaparib; first compound 0.04 µM) | relative viability (BX 795 + Olaparib; first compound 0.1265 µM) | relative viability (BX 795 + Olaparib; first compound 0.4 µM) | relative viability (BX 795 + Olaparib; first compound 1.265 µM) | relative viability (BX 795 + Luminespib; first compound 0.04 µM) | relative viability (BX 795 + Luminespib; first compound 0.1265 µM) | relative viability (BX 795 + Luminespib; first compound 0.4 µM) | relative viability (BX 795 + Luminespib; first compound 1.265 µM)
1 | RERF-LC-KJ | 0.488 | 0.574 | 0.536 | 0.446 | 0.62 | 0.636 | 0.591 | 0.416 | 0.473 | 0.424 | 0.452 | 0.282 | 0.919 | 0.963 | 0.945 | 0.409 | 1.41 | 1.27 | 1.29 | 0.753
2 | SK-LU-1 | 0.543 | 0.691 | 0.416 | 0.511 | 0.327 | 0.427 |  | 0.245 | 0.495 | 0.608 |  | 0.316 | 0.484 | 0.519 | 0.31 | 0.413 | 0.224 | 0.217 |  | 0.173
3 | SK-MES-1 | 0.372 | 0.32 | 0.322 | 0.382 | 0.471 | 0.548 | 0.224 | 0.299 | 0.691 | 0.628 | 0.592 | 0.419 | 0.746 | 0.646 | 0.688 | 0.383 | 0.857 | 0.757 | 0.78 | 0.5
4 | SW 1573 | 0.551 | 0.463 | 0.608 | 0.381 | 0.684 | 0.686 | 0.614 | 0.322 | 0.396 | 0.351 | 0.34 | 0.18 | 0.673 | 0.531 | 0.669 | 0.238 | 0.214 | 0.488 | 0.514 | 0.172
5 | UMC-11 | 0.726 | 0.86 | 0.683 | 0.534 | 0.469 | 0.43 | 0.371 | 0.27 | 0.291 | 0.322 | 0.253 | 0.19 | 0.381 | 0.32 | 0.861 | 0.27 | 0.751 | 1.06 | 1.07 | 0.271
